Biological target: T1, Tissue alpha-L-fucosidase (Bos taurus, UniProt Q2KIM0)
T1 sequence (Q2KIM0 whole entry): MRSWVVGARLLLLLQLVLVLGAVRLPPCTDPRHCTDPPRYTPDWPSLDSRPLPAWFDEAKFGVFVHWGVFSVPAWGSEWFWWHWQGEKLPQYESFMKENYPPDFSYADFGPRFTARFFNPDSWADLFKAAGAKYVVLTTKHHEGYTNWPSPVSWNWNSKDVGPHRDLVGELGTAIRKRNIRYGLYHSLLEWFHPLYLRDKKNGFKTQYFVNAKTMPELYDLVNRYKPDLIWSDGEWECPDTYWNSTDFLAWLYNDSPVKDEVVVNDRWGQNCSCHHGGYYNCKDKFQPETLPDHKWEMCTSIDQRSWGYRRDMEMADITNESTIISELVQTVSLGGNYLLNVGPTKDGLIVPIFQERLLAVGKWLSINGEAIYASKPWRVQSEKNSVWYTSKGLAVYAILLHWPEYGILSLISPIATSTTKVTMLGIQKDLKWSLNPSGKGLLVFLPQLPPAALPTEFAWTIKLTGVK
Assay: Inhibition of bovine alpha-L-fucosidase

Ki [nM] | IC50 [nM] | Compound
1 | – | C[C@@H]1NC(O)[C@@H](O)[C@H](O)[C@@H]1O (some centres not stated)
13000 | – | C[C@H]1N[C@@H](S(=O)(=O)O)[C@H](O)[C@@H](O)[C@H]1O
3000 | – | C[C@H]1NC(O)[C@H](O)[C@@H](O)[C@H]1O (some centres not stated)

The remaining lines, values behind:

Compound | Ki [nM] | IC50 [nM]
C[C@@H]1N[C@H](S(=O)(=O)O)[C@@H](O)[C@H](O)[C@@H]1O | 1 | –
C[C@H]1NC[C@H](O)[C@@H](O)[C@H]1O | 660000 | –
C[C@@H]1NC[C@@H](O)[C@H](O)[C@@H]1O [DEOXYFUCONOJIRIMYCIN] | 3 | 5

— ChEMBL document CHEMBL1138167, “Asymmetric synthesis of the L-fuco-nojirimycin, a nanomolar alpha-L-fucosidase inhibitor” (Bioorg Med Chem Lett, 2006)
